Earlier results, collected in US20080003262A1, “COMPOSITIONS AND THERAPEUTIC METHODS OF USE” (DrugTech Corporation, priority 2006, published 2008).

System: DIV
Settings: intravaginal 2% clindamycin cream or 10% hydrocortisone

C[C@]12CCC(=O)C=C1CC[C@@H]1[C@@H]2[C@@H](O)C[C@@]2(C)[C@H]1CC[C@]2(O)C(=O)CO [hydrocortisone]
Response of DIV to treatment: responds
